Legend:
IL-6/pSTAT3 = assay: IL-6 induced pSTAT3 assay in TF-1 cells; type: cell-based; details: Homo sapiens, read-out: Cellular selectivity (IL-6/pSTAT3)
Method: The following example describes the IL-6 induced pSTAT3 assay used to determine the cellular selectivity (IL-6/pSTAT3) of the TYK2 inhibitors.
TF-1 (ATCC®, CRL-2003™) cells were cultured in RPMI 1640 Medium, with GlutaMAX™ Supplement, HEPES for Cell Culture (Life Technologies, 72400047), 10% Fetal Bovine Serum (Life Technologies, 26400044), 2 ng/mL human recombinant GM-CSF (Life Technologies, PHC2013), 1 mM Sodium pyruvate (Life Technologies, 11360039), 1% MEM NEAA (Life Technologies, 11140-035), 1% Penicillin/Streptomycin (Life Technologies, 15140-122).
TF-1 (70×10^6) cells were starved overnight in T01 50 flasks (Opti-MEM™ I Reduced Serum Medium, no phenol red (Life Technologies, 11058-021), 1 mM Na pyruvate (Life Technologies, 11360039), 1% MEM NEAA (Life Technologies, 11140-035), and 1% Penicillin/Streptomycin (Life Technologies, 15140-122)) then seeded into 96-well TPP plates (150 000 cell/well) and incubated with test compounds (Final Concentration [nM] 10000-0.05) for 30 minutes at 37° C. […] Stimulation was terminated by addition of lysis buffer (MSD K150SVD) and pSTAT3 detection was measured with Phospho-STAT3 (Tyr705) Kit MSD K150SVD)) according to manufacturer's instruction. Briefly, cell lysates were added to pre-blocked plates, sealed, and shake for 1 hour at room temperature. Plates were then washed and incubated with detection antibody for 1 hour at room temperature. After washing, Read Buffer was added, and plates were read on MSD instrument (Model 1300 MSD Quickplex SQ 120).

TYK2-JH2 = molecular target: T1, TYK2-JH2 (Homo sapiens, UniProt P29597); assay: TYK2-JH2 HTRF binding assay (ligand efficiency); details: calculated from IC50 of the TYK-JH2 binding assay (Equation 1)
T1 construct: TYK JH2 enzyme mix (ChemPartnec CP20210818A-BV); purchased ChemPartner CP20210818A-BV
T1 sequence (P29597 589-875 limits assumed): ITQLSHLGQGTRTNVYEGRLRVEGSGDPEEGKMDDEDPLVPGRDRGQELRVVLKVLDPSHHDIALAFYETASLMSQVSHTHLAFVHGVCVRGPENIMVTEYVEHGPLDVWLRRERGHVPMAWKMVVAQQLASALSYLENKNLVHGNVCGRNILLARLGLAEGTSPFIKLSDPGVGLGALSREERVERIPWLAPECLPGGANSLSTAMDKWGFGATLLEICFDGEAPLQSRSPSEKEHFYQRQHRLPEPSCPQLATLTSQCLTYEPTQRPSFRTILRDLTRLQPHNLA
Method in brief: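 His-tagged TYK2 JH2 (0.5 nM) preincubated 10 min at RT with compound (0.1–0.000005 μM) in 20 mM HEPES pH 7.5, 10 mM MgCl2, 0.01% Triton X-100, 1 mM DTT; then 35 nM tracer plus anti-6HIS Tb cryptate, 60 min RT. TR-FRET read (Ex340/Em495/520); IC50 converted to ligand efficiency.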

IL-12/pSTAT4 = assay: IL-12 induced pSTAT4 assay in NK-92 cells; type: cell-based; details: Homo sapiens, NK92, IL-12 stimulation, read-out: Cellular potency (IL-12/pSTAT4)
Method in brief: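 Overnight-starved NK-92 cells (20K/well) pre-incubated with compounds (1000 to 0.05 nM final) 30 min at 37 °C, then stimulated with IL-12 (10 ng/ml) for 30 min at 37 °C. Lysates assayed for pSTAT4 (Tyr693) by MSD electrochemiluminescence.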

[1] = Brain exposure pharmacokinetic study in rats; type: in vivo, rat; details: male Sprague Dawley rats, oral gavage 10 mg/kg, plasma, CSF
Method: The brain exposure of exemplary compounds, e.g., 1, 2, and 4 were evaluated in male Sprague Dawley rats after oral gavage administration at 10 mg/kg. The formulation was 5% DMSO+10% PEG400 in saline. Rats were fasted overnight with food returned 4 hours post-dose. CSF was collected by direct needle puncture into the cisterna magna.
(§1) For both rat and mouse studies, brain tissue was washed with 3 volumes of saline prior to homogenization. Brain tissue was homogenized with 3 volumes (v/w) of phosphate buffered saline. Plasma, brain homogenate, and CSF samples (rat only) were analyzed by LC-MS/MS and the concentration of test compound at each time point was determined by linear regression.
(§2) Pharmacokinetic parameters were calculated from the plasma, brain, and CSF concentrations by non-compartmental modeling using WinNonlin 8.2.

GM-CSF/pSTAT5 = assay: GM-CSF induced pSTAT5 assay in CellSensor irf1-bla TF-1 cells; type: cell-based; details: Homo sapiens, GM-CSF 1 ng/mL, read-out: Cellular selectivity (GM-CSF induced pSTAT5)
Method: The CellSensor irf1-bla TF-1 cell line (LifeTechnologies, K1657) was cultured in RPMI 1640 Medium (Invitrogen 72400-047), 10% Fetal Bovine Serum (Invitrogen, 26400044), 1 mM Sodium pyruvate (Life Technologies, 11360039), 1% MEM NEAA (Life Technologies, 11140-035), 2 ng/ml of human recombinant GM-CSF (Fisher, PHC2015), 1% Penicillin/Streptomycin (Life Technologies, 15140-122) and 5 μg/ml of Blasticidin (ThermoFisher, A1113903).
The cell line was seeded in a T75 flask at 13×10^6 cells/50 mL in starvation medium (Opti-MEM™ I Reduced Serum Medium, no phenol red (Life Technologies, 11058-021), 1 mM Na pyruvate (Life Technologies, 11360039), 1% MEM NEAA (Life Technologies, 11140-035), and 1% Penicillin/Streptomycin (Life Technologies, 15140-122)) for 16 hours at 37° C. under 5% CO2 the day before the assay.
For the assay, CellSensor irf1-bla TF-1 cells were seeded at 30 000 cells/32 μL (starvation medium)/well in a 384-well plate.
Compounds were added on the cells in 4 μL (starvation medium)/well at 10× the final concentration. They were incubated for 30 minutes at 37° C.
Human recombinant carrier-free GM-CSF (ThermoFisher, ref PHC2015) was added to the wells in 4 μL (starvation medium)/well at 10×. The final concentration was 1 ng/mL. Control wells without GM-CSF treatment were added. Plates were incubated for 5 hours at 37° C.
6× LiveBlazer-FRET substrate (Invitrogen, K1085) was added to the wells at 8 μL/well. The substrate was prepared shortly before use by mixing 6 μL of solution A and 60 μL of solution B to 934 μL of solution C. Plates were incubated for 2.5 hours at room temperature in the dark. The plates were read on an Envision (Perkin Elmer) with an excitation at a wavelength of 409 nm and two wavelengths for the emission 520 nm and 450 nm. The ratio between the […] emission was used to calculate the IC50s.
The IC50 for the inhibition of pSTAT5 was calculated with the Xlfit software using the 4 Parameter Logistic Model or Sigmoidal Dose-Response Model (model 205).

[2] = Brain exposure pharmacokinetic study in mice; type: in vivo, mouse; details: male C57BL/6 mice, oral gavage 5 mg/kg, plasma
Method: The brain exposure of 18 was evaluated in male C57BL/6 mice after oral gavage administration at 5 mg/kg. The formulation was 10% DMSO+40% PEG400 in saline. Mice were provided free access to food and water without fasting. Terminal sample collection of plasma and brain tissue were collected at […], 0.25, 0.5, 1, 2, and 4 hours post-dose with n=3 at each timepoint.
as §1, §2

Compound	IC50 (IL-6/pSTAT3)	Ligand Efficiency (TYK2-JH2)	IC50 (IL-12/pSTAT4)	Brain Kpu, u [1]	IC50 (GM-CSF/pSTAT5)	Brain Kpu, u [2]
C[C@@H](c1ccc(Nc2cc(Nc3ncccc3S(C)(=O)=O)ncn2)nc1)N1CC2(COC2)C1 [Compound 1, (S)—N^4-(5-(1-(2-oxa-6-azaspiro[3.3]heptan-6-yl)ethyl)73yridine-2-yl)-N^6-(3-(methylsulfonyl)73yridine-2-yl)pyrimidine-4,6-diamine]	> 10 µM	††† (†††: >0.39)	< 0.1 µM	†† (†† 0.1-0.2u)	4 to 10 µM	–
Cc1cccc(Nc2cc(Nc3ncccc3S(C)(=O)=O)ncn2)n1 [Compound 18, N^4-(6-methylpyridin-2-yl)-N^6-(3-(methylsulfonyl)99yridine-2-yl) pyrimidine-4,6-diamine]	< 4 µM	††† (†††: >0.39)	< 0.1 µM	–	> 10 µM	††† (††† >0.2u)
C[C@@H](c1ccc(Nc2cc(Nc3ncc(F)cc3S(C)(=O)=O)ncn2)nc1)N1CC2(COC2)C1 [Compound 2, (S)—N^4-(5-(1-(2-oxa-6-azaspiro[3.3]heptan-6-yl)ethyl)75yridine-2-yl)-N^6-(5-fluoro-3-(methylsulfonyl)75yridine-2-yl)pyrimidine-4,6-diamine]	> 10 µM	††† (†††: >0.39)	< 0.1 µM	† († <0.1u)	> 10 µM	–
CC(NC1CCOC1)c1ccc(Nc2cc(Nc3ccccc3S(C)(=O)=O)ncn2)nc1 (stereo not shown) [Compound 26, N^4-(2-(methylsulfonyl)phenyl)-N^6-(5-(1-(tetrahydrofuran-3-ylamino)ethyl)106yridine-2-yl)pyrimidine-4,6-diamine]	> 10 µM	†† (††: 0.37-0.39)	< 0.1 µM	–	> 10 µM	–
C[C@@H](c1ccc(Nc2cc(Nc3ncccc3S(C)(=O)=O)ncn2)nc1)N(C)C [Compound 4, (S)—N^4-(5-(1-(dimethylamino)ethyl)79yridine-2-yl)-N^6-(3-(methylsulfonyl) 79yridine-2-yl) pyrimidine-4,6-diamine]	4 to 10 µM	††† (†††: >0.39)	< 0.1 µM	††† (††† >0.2u)	> 10 µM	–
CC(c1ccc(Nc2cc(Nc3ncccc3S(C)(=O)=O)ncn2)nc1)N1CC(F)C1 (stereo not shown) [Compound 22, N^4-(5-(1-(3-fluoroazetidin-1-yl)ethyl)102yridine-2-yl)-N^6-(3-(methylsulfonyl)102yridine-2-yl)pyrimidine-4,6-diamine]	4 to 10 µM	††† (†††: >0.39)	< 0.1 µM	–	> 10 µM	–
Cc1ccnc(Nc2cc(Nc3ccccc3C(N)=O)ncn2)c1 [Compound 45, 2-((6-((4-methylpyridin-2-yl)amino)pyrimidin-4-yl)amino) benzamide]	< 4 µM	††† (†††: >0.39)	< 0.1 µM	–	< 4 µM	–
CC(C)[C@@H](c1ccc(Nc2cc(Nc3ncccc3S(C)(=O)=O)ncn2)nc1)N1CC2(COC2)C1 [Compound 13, (S)—N^4-(5-(2-methyl-1-(2-oxa-6-azaspiro[3.3]heptan-6-yl)propyl)pyridine-2-yl)-N^6-(3-(methylsulfonyl)93yridine-2-yl)pyrimidine-4,6-diamine]	4 to 10 µM	†† (††: 0.37-0.39)	< 0.1 µM	–	> 10 µM	–
CS(=O)(=O)c1cccnc1Nc1cc(Nc2cccc(C(F)(F)F)n2)ncn1 [Compound 19, N^4-(3-(methylsulfonyl)100yridine-2-yl)-N^6-(6-(trifluoromethyl) 100yridine-2-yl)pyrimidine-4,6-diamine]	> 10 µM	††† (†††: >0.39)	< 0.1 µM	–	> 10 µM	–
COc1cnc(Nc2cc(Nc3ccc([C@H](C)N4CC5(COC5)C4)cn3)ncn2)c(S(C)(=O)=O)c1 [Compound 3, (S)—N^4-(5-(1-(2-oxa-6-azaspiro[3.3]heptan-6-yl)ethyl)pyridine-2-yl)-N^6-(5-methoxy-3-(methylsulfonyl)77yridine-2-yl)pyrimidine-4,6-diamine]	4 to 10 µM	†† (††: 0.37-0.39)	< 0.1 µM	–	> 10 µM	–
CS(=O)(=O)c1cccnc1Nc1cc(Nc2ccc3c(n2)CC[C@@H]3N2CC3(COC3)C2)ncn1 [Compound 9, N^4-((5S)-5-(2-oxa-6-azaspiro[3.3]heptan-6-yl)-6,7-dihydro-5H-cyclopenta[b]86yridine-2-yl)-N^6-(3-(methylsulfonyl)86yridine-2-yl)pyrimidine-4,6-diamine]	> 10 µM	††† (†††: >0.39)	< 0.1 µM	–	> 10 µM	–
C[C@H]1CN(C2CC2)CCN1c1ccc(Nc2cc(Nc3ncccc3S(C)(=O)=O)ncn2)nc1 [Compound 8, (S)—N^4-(5-(4-cyclopropyl-2-methylpiperazin-1-yl)85yridine-2-yl)-N^6-(3-(methylsulfonyl)85yridine-2-yl)pyrimidine-4,6-diamine]	4 to 10 µM	††† (†††: >0.39)	< 0.1 µM	–	< 4 µM	–

From patent publication US12358904B2, “Inhibitors of TYK2” (Atomwise Inc., priority 2023, dated 2025)
